Assay results: US9776990B2, “Isoindolone derivatives” (AbbVie Inc., priority 2012, dated 2017)

What was measured:
[1] = system: LPS induced IL-6 production; assay: LPS (lipopolysaccharide) induced IL-6 production mouse assay; format: in vivo; conditions: mice, 3 mg/kg (PO), one hour before LPS, serum 2 hours after LPS
Description: Compounds of the Examples listed in Table 8 were assayed for their ability to inhibit LPS (lipopolysaccharide) induced IL-6 production in mice. Severe combined immunodeficient female mice (8 per group) received an intraperitoneal challenge of lipopolysaccharide (2.5 mg/kg, L2630 E. coli 0111:B4) one hour after oral administration (PO) or intraperitoneal administration (IP) of compounds in a solution of 2% ethanol, 5% Tween-80, 20% PEG-400 and 73% (0.2% hydroxypropylmethylcellulose in water). Mice were euthanized 2 hours after lipopolysaccharide injection, blood was removed by cardiac puncture, and then the serum harvested from the blood samples was frozen at −80° C. On the day of the assay the serum samples were brought to room temperature and then diluted 1:20 in phosphate-buffered saline containing 2% bovine serum albumin. Interleukin-6 measurements were performed using a cytokine assay from Meso Scale Discovery (Gaithersburg, Md.) for mouse serum analysis according to the manufacturer's protocol and read on a SECTOR Imager 6000 (Meso Scale Discovery, Gaithersburg, Md.) instrument. Statistical analysis was performed using Prism software (version 5.0) incorporating Dunnett's one way ANOVA. The IL-6 mean and standard deviation of the group of vehicle treated animals were compared with the IL-6 mean and standard deviation of the group treated with drug. A p value <0.05 means that there is less than a 5% probability that the mean values in the two groups are equal.

[2] = target: BRD4 (BDI_K57-E168) (Homo sapiens (Human), UniProt O60885); assay: TR-FRET bromodomain binding assay, BRD4 first bromodomain; conditions: His-tagged BD1, 100 nM Alexa647 probe
Method in brief: (§1)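 His-tagged BRD4 BD1 or BD2 (8 nM) with Eu-anti-His antibody (1 nM) and Alexa647-labelled BET-inhibitor probe (100 nM BDI, 30 nM BDII); 50 μM−0.85 nM compound, 2% DMSO, phosphate buffer pH 6.0, 1 h at room temperature. TR-FRET IC50 by 4-parameter fit, converted to Ki using probe Kd.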

[3] = target: BRD4 (BDII_E352-M457) (Homo sapiens (Human), UniProt O60885); assay: TR-FRET bromodomain binding assay, BRD4 second bromodomain; conditions: His-tagged BD2, 30 nM Alexa647 probe
Method in brief: as §1

[4] = system: breast cancer cell line MX-1; assay: MX-1 cell line proliferation assay (3-day, Cell Titer Glo); format: cell-based, human; conditions: Homo sapiens, MX1, MX-1 cells, 72 hours, read-out: Cellular proliferation: EC50
Description: The impact of compounds of the Examples on cancer cell proliferation was determined using the breast cancer cell line MX-1 (ATCC) in a 3-day proliferation assay. MX-1 cells were maintained in RPMI supplemented with 10% FBS at 37 C.° and an atmosphere of 5% CO2. For compound testing, MX-1 cells were plated in 96-well black bottom plates at a density of 5000 cells/well in 90 μl of culture media and incubated at 37° overnight to allow cell adhesion and spreading. Compound dilution series were prepared in DMSO via a 3-fold serial dilution from 3 mM to 0.1 μM. The DMSO dilution series were then diluted 1:100 in phosphate buffered saline, and 10 μL of the resulted solution were added to the appropriate wells of the MX-1 cell plate. The final compound concentrations in the wells were 3, 1, 0.3, 0.1, 0.03, 0.01, 0.003, 0.001, 0.0003 and 0.0001 μM.
Luminescence readings from the Cell Titer Glo assay were normalized to the DMSO treated cells and analyzed using the GraphPad Prism software with sigmoidal curve fitting to obtain EC50s. The minimum significant ratio (MSR) was determined to evaluate assay reproducibility (Eastwood et al., (2006) J Biomol Screen, 11: 253-261).

Ki [2]: 11 nM | Ki [3]: 19 nM | EC50 [4]: 193 nM
Structure (SMILES): CCS(=O)(=O)Nc1ccc(Oc2ccc(F)cc2F)c(-c2[nH]c(C)c3c2CCCC3=O)c1 [Example 47, N-[4-(2,4-difluorophenoxy)-3-(3-methyl-4-oxo-4,5,6,7-tetrahydro-2H-isoindol-1-yl)phenyl]ethanesulfonamide]
% inhibition of LPS induced IL-6 production [1]: 33.0 at 3 mg/kg (PO) %
